Assay results as given in patent publication US20160114000A1 (Merck Sharp & Dohme, published 2016).
*1 amine or outer side, *2 acyl side, *3 side chain or, on linkers, in order; H or OH if unused. Where a SMILES comes first, the peptide text is derived from it. Side-chain parts run from the residue outwards. [ ]: non-standard residue; d: D form. The star is where a group is joined. Phe(4-CH2NH2) = NCc1ccc(C[C@H](N)C(=O)O)cc1; γGlu = O=C(O)[C@H](CCC(=O)[*:2])N[*:1]; Palmitoyl = CCCCCCCCCCCCCCCC(=O)*

Columns and labels:
human GLP-1R = molecular target: T1, human GLP-1R (Homo sapiens, UniProt P43220); assay: cAMP protocol, cells expressing human GLP-1R; format: cell-based; settings: cAMP production, 20% human serum in assay buffer; read-out: GLPR1 EC50 (nM) human
T1 construct: expressed in transfected cells; grown under Geneticin and Hygromycin selection
T1 sequence (P43220 24-463): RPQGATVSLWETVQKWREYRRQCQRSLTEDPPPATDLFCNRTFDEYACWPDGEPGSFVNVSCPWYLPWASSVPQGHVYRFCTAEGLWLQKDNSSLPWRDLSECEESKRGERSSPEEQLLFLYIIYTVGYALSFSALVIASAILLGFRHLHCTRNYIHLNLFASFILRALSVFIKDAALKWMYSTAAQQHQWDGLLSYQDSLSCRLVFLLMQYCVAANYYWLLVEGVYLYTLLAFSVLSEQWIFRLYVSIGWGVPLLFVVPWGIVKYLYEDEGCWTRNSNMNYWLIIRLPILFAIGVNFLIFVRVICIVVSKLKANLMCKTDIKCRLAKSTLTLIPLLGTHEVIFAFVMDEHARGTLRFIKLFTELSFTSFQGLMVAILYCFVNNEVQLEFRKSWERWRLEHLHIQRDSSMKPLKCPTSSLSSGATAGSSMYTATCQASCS
Procedure: The cAMP protocol was as follows.
(§1) Peptides were dissolved in 100% DMSO and serially diluted to generate 11 point titrations. The peptide solutions were then transferred into 384-well assay plates (150 nL/well). Assay ready frozen cells expressing human GLP-1R or human GCGR were suspended in growth media consisting of DMEM/F12 medium (GIBCO), 10% FBS (GIBCO), lx P/S (GIBCO), 800 μg/mL Geneticin (GIBCO), and 300 μg/mL Hygromycin (Invitrogen). Cells were then diluted in assay buffer consisting of PBS (GIBCO), 7.5% BSA (Perkin Elmer), 100 μM RO 20-1724 (Sigma), and 20% human serum (MP Biomedical). The cell suspensions (15 μL) were then added to the assay plates containing the peptide solutions (30,000 cells/well for human GCGR; 20,000 cells/well for GLP1R). The cells were incubated for 1 hour at room temperature in the dark. Production of cAMP was determined using HitHunter™ cAMPXS kits (DiscoverX). ED buffer (20 μL) was then added to each well and the plates were incubated for 1 hour at room temperature in the dark. Subsequently, EA buffer (20 μL) was added to each well, and the plates were incubated for 1-18 hours at room temperature in the dark. Luminescence was measured using an EnVision Multilabel plate reader (Perkin Elmer). EC50 values were calculated using ADA data analyzer software.

human GCGR = molecular target: T2, human GCGR (Homo sapiens, UniProt P47871); assay: cAMP protocol, cells expressing human GCGR; format: cell-based; settings: for EC50: cAMP production, 20% human serum in assay buffer; for hGCGR/hGLP1R (hTone): ratio of EC50 at human GCGR to EC50 at human GLP1R
T2 construct: expressed in transfected cells; grown under Geneticin and Hygromycin selection
T2 sequence (P47871 26-477): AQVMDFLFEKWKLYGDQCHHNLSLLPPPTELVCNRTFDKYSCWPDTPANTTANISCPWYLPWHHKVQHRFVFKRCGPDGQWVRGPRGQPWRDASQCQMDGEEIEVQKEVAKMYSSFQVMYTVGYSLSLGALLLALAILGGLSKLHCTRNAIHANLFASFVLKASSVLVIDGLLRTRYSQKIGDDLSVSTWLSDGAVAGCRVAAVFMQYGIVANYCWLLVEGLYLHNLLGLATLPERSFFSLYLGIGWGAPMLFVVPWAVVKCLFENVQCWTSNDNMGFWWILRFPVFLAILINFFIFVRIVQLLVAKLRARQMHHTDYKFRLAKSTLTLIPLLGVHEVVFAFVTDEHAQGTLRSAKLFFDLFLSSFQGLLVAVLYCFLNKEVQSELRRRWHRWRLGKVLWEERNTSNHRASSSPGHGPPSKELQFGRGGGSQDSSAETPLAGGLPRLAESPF
Procedure: The cAMP protocol was as follows.
as §1

[1] = tested on: DIO mice (strain C57Bl6/NTac); assay: Body weight change (%) relative to vehicle in DIO mice, second study, Example 19; format: in vivo; settings: eight days
Procedure: In addition, the peptide of SEQ ID NO: 8 was administered at 15 nmol/kg, while the peptide of SEQ ID NOs: 10 and 11 were administered at 3 nmol/kg. Body weight was measured daily for eight days and body weight change is expressed as percent relative to vehicle (FIG. 2).

[2] = tested on: diet-induced obese (DIO) mice (strain C57Bl6/NTac); assay: Cumulative body weight change (grams) in DIO mice, Example 18; format: in vivo; settings: day 9; for weight loss: 9 nmol/kg daily
Procedure: Mice were administered a vehicle control or a dose of a peptide daily for nine days. […] The peptide of SEQ ID NO: 9 was administered at doses of 9 and 25 nmol/kg. Cumulative body weight change (grams) was measured each day of the study except on day 3. Results are shown in FIG. 1 and are expressed as mean±SEM.

[3] = tested on: DIO mice (strain C57Bl6/NTac); assay: Ambient glucose levels in DIO mice, Example 21; format: in vivo; settings: for changes in ambient glucose: after 9 days of dosing
Procedure: In addition to cumulative body weight change, ambient glucose levels of the DIO mice (strain C57Bl6/NTac) were measured periodically throughout the study.

[4] = tested on: DIO mice (strain C57Bl6/NTac); assay: Cumulative food intake in DIO mice, Example 20; format: in vivo; settings: 3 nmol/kg, after 8 days of dosing, vs vehicle
Source text: For the studies in Examples 18, 19, 20, and 21, diet induced obesity (DIO) mice (strain C57Bl6/NTac; 20 weeks on a high fat diet, about 47 g) were divided into groups of eight mice per group and the initial average body weight, food intake and basal glucose of each group were matched before peptide administration. Each group of mice was subcutaneously injected daily with a dose of Co-agonist Peptide or vehicle control for 7 to 10 days. The peptides tested in this study were Co-agonist Peptides 1, 2, 3, 4, 5, and 6 (SEQ ID NOs: 6, 7, 8, 9, 10, and 11, respectively) at the doses that varied from 3 nmol/kg to 25 nmol/kg. Body weight, food intake and basal glucose were measured periodically during treatment.

Row | Compound | EC50 (human GLP-1R) [nM] | EC50 (human GCGR) [nM] | hGCGR/hGLP1R (hTone) (human GCGR) | weight loss, percent relative to vehicle ([1]; 9 nmol/kg daily) | weight loss [2] | body weight loss ([2]; 25 nmol/kg daily) [grams] | changes in ambient glucose ([3]; 9 nmol/kg) | decrease in ambient glucose compared to vehicle ([3]; 25 nmol/kg, second day of dosing) [mg/dL] | weight loss, percent relative to vehicle ([1]; 3 nmol/kg daily) | food intake [4] | decrease in ambient glucose compared to vehicle ([3]; 9 nmol/kg, day 7 of dosing) [mg/dL] | weight loss, percent relative to vehicle ([1]; 15 nmol/kg daily) | decrease in ambient glucose compared to vehicle ([3]; 9 nmol/kg, day 9) [mg/dL]
1 | CCCCCCCCCCCCCCCC(=O)N[C@@H](CCC(=O)N[C@@H](CCC(=O)NCCCC[C@H](NC(=O)[C@H](CC(=O)O)NC(=O)[C@H](CO)NC(=O)[C@@H](NC(=O)[C@H](Cc1ccccc1)NC(=O)[C@@H](NC(=O)CNC(=O)[C@@H](NC(=O)C(C)(C)NC(=O)[C@@H](N)Cc1c[nH]cn1)C(C)C)[C@@H](C)O)[C@@H](C)O)C(=O)N[C@@H](CO)C(=O)N[C@@H](CCCCN)C(=O)N[C@@H](Cc1ccc(O)cc1)C(=O)N[C@@H](CC(C)C)C(=O)N[C@@H](CC(=O)O)C(=O)NC(C)(C)C(=O)N[C@@H](CCCNC(=N)N)C(=O)N[C@@H](C)C(=O)N[C@@H](C)C(=O)N[C@@H](CCC(N)=O)C(=O)N[C@@H](CC(=O)O)C(=O)N[C@@H](Cc1ccccc1)C(=O)N[C@H](C(=O)N[C@@H](CCC(N)=O)C(=O)N[C@@H](Cc1c[nH]c2ccccc12)C(=O)N[C@@H](CC(C)C)C(=O)N[C@@H](CCCC)C(=O)N[C@@H](CC(=O)O)C(=O)N[C@H](C(N)=O)[C@@H](C)O)C(C)C)C(=O)O)C(=O)O [SEQ ID NO: 9] | 0.1 | 0.89 | 8.98 | approximately 5% | ~3 grams | 10.5 | did not exhibit significant changes | -75 |  |  |  |  | 
2 | CCCCCCCCCCCCCCCC(=O)N[C@@H](CCC(=O)N[C@@H](CCC(=O)NCCCC[C@H](NC(=O)[C@H](CC(=O)O)NC(=O)[C@H](CO)NC(=O)[C@@H](NC(=O)[C@H](Cc1ccccc1)NC(=O)[C@@H](NC(=O)CNC(=O)[C@H](CCC(N)=O)NC(=O)[C@@H](CO)NC(=O)[C@@H](N)Cc1c[nH]cn1)[C@@H](C)O)[C@@H](C)O)C(=O)N[C@@H](CO)C(=O)N[C@@H](CCCCN)C(=O)N[C@@H](Cc1ccc(O)cc1)C(=O)N[C@@H](CC(C)C)C(=O)N[C@@H](CC(=O)O)C(=O)N[C@@H](C)C(=O)N[C@@H](CCCNC(=N)N)C(=O)N[C@@H](C)C(=O)N[C@@H](C)C(=O)N[C@@H](CCC(N)=O)C(=O)N[C@@H](CC(=O)O)C(=O)N[C@@H](Cc1ccccc1)C(=O)N[C@H](C(=O)N[C@@H](CCC(N)=O)C(=O)N[C@@H](Cc1c[nH]c2ccccc12)C(=O)N[C@@H](CC(C)C)C(=O)N[C@@H](CC(C)C)C(=O)N[C@@H](CC(=O)O)C(=O)N[C@H](C(N)=O)[C@@H](C)O)C(C)C)C(=O)O)C(=O)O [SEQ ID NO: 10] |  |  | 0.90 |  | approximately 13 grams |  |  |  | approximately 17% | significant suppression of food intake |  |  | 
3 | CCCCCCCCCCCCCCCC(=O)N[C@@H](CCC(=O)NCCCC[C@H](NC(=O)[C@H](CC(=O)O)NC(=O)[C@H](CO)NC(=O)[C@@H](NC(=O)[C@H](Cc1ccccc1)NC(=O)[C@@H](NC(=O)CNC(=O)[C@H](CCC(N)=O)NC(=O)[C@@H](CO)NC(=O)[C@@H](N)Cc1c[nH]cn1)[C@@H](C)O)[C@@H](C)O)C(=O)N[C@@H](CO)C(=O)N[C@@H](CCCCN)C(=O)N[C@@H](Cc1ccc(O)cc1)C(=O)N[C@@H](CC(C)C)C(=O)N[C@@H](CC(=O)O)C(=O)N[C@H](C(=O)N[C@@H](CCCNC(=N)N)C(=O)N[C@@H](C)C(=O)N[C@@H](C)C(=O)N[C@@H](CCC(N)=O)C(=O)N[C@@H](CC(=O)O)C(=O)N[C@@H](Cc1ccccc1)C(=O)N[C@H](C(=O)N[C@@H](CCC(N)=O)C(=O)N[C@@H](Cc1c[nH]c2ccccc12)C(=O)N[C@@H](CC(C)C)C(=O)N[C@@H](CC(C)C)C(=O)N[C@@H](CC(=O)O)C(=O)N[C@H](C(N)=O)[C@@H](C)O)C(C)C)C(C)C)C(=O)O [SEQ ID NO: 7] (H-H[dS]QGTFTSDK([γGlu-Palmitoyl])SKYLDVRAAQDFVQWLLDT-NH2; N-terminus assumed) | 0.16 | 0.041 | 0.30 | approximately 5% | ~3 grams |  | did not exhibit significant changes |  |  |  |  |  | 
4 | CCCCCCCCCCCCCCCC(=O)N[C@@H](CCC(=O)NCCCC[C@H](NC(=O)[C@H](CC(=O)O)NC(=O)[C@H](CO)NC(=O)[C@@H](NC(=O)[C@H](Cc1ccccc1)NC(=O)[C@@H](NC(=O)CNC(=O)[C@H](CCC(N)=O)NC(=O)[C@@H](CO)NC(=O)[C@@H](N)Cc1c[nH]cn1)[C@@H](C)O)[C@@H](C)O)C(=O)N[C@@H](CO)C(=O)N[C@@H](CCCCN)C(=O)N[C@@H](Cc1ccc(O)cc1)C(=O)N[C@@H](CC(C)C)C(=O)N[C@@H](CC(=O)O)C(=O)N[C@@H](C)C(=O)N[C@@H](CCCNC(=N)N)C(=O)N[C@@H](C)C(=O)N[C@@H](C)C(=O)N[C@@H](CCC(N)=O)C(=O)N[C@@H](CC(=O)O)C(=O)N[C@@H](Cc1ccccc1)C(=O)N[C@H](C(=O)N[C@@H](CCC(N)=O)C(=O)N[C@@H](Cc1c[nH]c2ccccc12)C(=O)N[C@@H](CC(C)C)C(=O)N[C@@H](CC(C)C)C(=O)N[C@@H](CC(=O)O)C(=O)N[C@H](C(N)=O)[C@@H](C)O)C(C)C)C(=O)O [SEQ ID NO: 6] |  |  | 0.88 | approximately 20% | 10.5 grams |  |  |  |  |  | -60 |  | 
5 | CCCCCCCCCCCCCCCC(=O)N[C@@H](CCC(=O)N[C@@H](CCC(=O)NCCCC[C@H](NC(=O)[C@H](CC(=O)O)NC(=O)[C@H](CO)NC(=O)[C@@H](NC(=O)[C@H](Cc1ccccc1)NC(=O)[C@@H](NC(=O)CNC(=O)[C@H](CCC(N)=O)NC(=O)[C@@H](CO)NC(=O)[C@@H](N)Cc1c[nH]cn1)[C@@H](C)O)[C@@H](C)O)C(=O)N[C@@H](CO)C(=O)N[C@@H](CCCCN)C(=O)N[C@@H](Cc1ccc(O)cc1)C(=O)N[C@@H](CC(C)C)C(=O)N[C@@H](CC(=O)O)C(=O)N[C@H](C(=O)N[C@@H](CCCNC(=N)N)C(=O)N[C@@H](C)C(=O)N[C@@H](C)C(=O)N[C@@H](CCC(N)=O)C(=O)N[C@@H](CC(=O)O)C(=O)N[C@@H](Cc1ccccc1)C(=O)N[C@H](C(=O)N[C@@H](CCC(N)=O)C(=O)N[C@@H](Cc1c[nH]c2ccccc12)C(=O)N[C@@H](CC(C)C)C(=O)N[C@@H](CC(C)C)C(=O)N[C@@H](CC(=O)O)C(=O)N[C@H](C(N)=O)[C@@H](C)O)C(C)C)C(C)C)C(=O)O)C(=O)O [SEQ ID NO: 8] |  |  | 0.60 | approximately 17% | 8 grams |  |  |  |  |  |  | approximately 25% | -72
6 | CCCCCCCCCCCCCCCC(=O)N[C@@H](CCC(=O)N[C@@H](CCC(=O)NCc1ccc(C[C@H](NC(=O)[C@H](CC(=O)O)NC(=O)[C@H](CO)NC(=O)[C@@H](NC(=O)[C@H](Cc2ccccc2)NC(=O)[C@@H](NC(=O)CNC(=O)[C@H](CCC(N)=O)NC(=O)[C@@H](CO)NC(=O)[C@@H](N)Cc2c[nH]cn2)[C@@H](C)O)[C@@H](C)O)C(=O)N[C@@H](CO)C(=O)N[C@@H](CCCCN)C(=O)N[C@@H](Cc2ccc(O)cc2)C(=O)N[C@@H](CC(C)C)C(=O)N[C@@H](CC(=O)O)C(=O)N[C@@H](C)C(=O)N[C@@H](CCCNC(=N)N)C(=O)N[C@@H](C)C(=O)N[C@@H](C)C(=O)N[C@@H](CCC(N)=O)C(=O)N[C@@H](CC(=O)O)C(=O)N[C@@H](Cc2ccccc2)C(=O)N[C@H](C(=O)N[C@@H](CCC(N)=O)C(=O)N[C@@H](Cc2c[nH]c3ccccc23)C(=O)N[C@@H](CC(C)C)C(=O)N[C@@H](CC(C)C)C(=O)N[C@@H](CC(=O)O)C(=O)N[C@H](C(N)=O)[C@@H](C)O)C(C)C)cc1)C(=O)O)C(=O)O [SEQ ID NO: 17, His^1-D-Ser^2-Gln-Gly-Thr-Phe-Thr-Ser-Asp-pAF^10(γGlu-γGlu-C16)-Ser-Lys-Tyr-Leu-Asp^15-Ala^16-Arg-Ala-Ala-Gln-Asp-Phe^22-Val^23-Gln-Trp^25-Leu-Leu-Asp-Thr-CONH2] (H-H[dS]QGTFTSD[Phe(4-CH2NH2)]([γGlu-γGlu-Palmitoyl])SKYLDARAAQDFVQWLLDT-NH2) | 0.05 | 0.05 | 0.98 |  |  |  |  |  |  |  |  |  | 
7 | CCCCCCCCCCCCCCCC(=O)N[C@@H](CCC(=O)N[C@@H](CCC(=O)NCCCC[C@H](NC(=O)[C@H](CC(=O)O)NC(=O)[C@H](CO)NC(=O)[C@@H](NC(=O)[C@H](Cc1ccccc1)NC(=O)[C@@H](NC(=O)CNC(=O)[C@H](CCC(N)=O)NC(=O)[C@@H](CO)NC(=O)[C@@H](N)Cc1c[nH]cn1)[C@@H](C)O)[C@@H](C)O)C(=O)N[C@@H](CO)C(=O)N[C@@H](CCCCN)C(=O)N[C@@H](Cc1ccc(O)cc1)C(=O)N[C@@H](CC(C)C)C(=O)N[C@@H](CC(=O)O)C(=O)N[C@@H](CCC(=O)O)C(=O)N[C@@H](CCCNC(=N)N)C(=O)N[C@@H](C)C(=O)N[C@@H](C)C(=O)N[C@@H](CCC(N)=O)C(=O)N[C@@H](CC(=O)O)C(=O)N[C@@H](Cc1ccccc1)C(=O)N[C@H](C(=O)N[C@@H](CCC(N)=O)C(=O)N[C@@H](Cc1c[nH]c2ccccc12)C(=O)N[C@@H](CC(C)C)C(=O)N[C@@H](CCS(C)(=O)=O)C(=O)N[C@@H](CC(=O)O)C(=O)N[C@H](C(N)=O)[C@@H](C)O)C(C)C)C(=O)O)C(=O)O [SEQ ID NO: 15] | 0.02 | 0.02 | 1.10 |  |  |  |  |  |  |  |  |  | 
